Results from paper PMC5889410, “Design and Biological Evaluation of Antifouling Dihydrostilbene Oxime Hybrids” (Marine Biotechnology (New York, N.y.), 2018).
In brackets after ≈: the same amount, converted by molar mass.

Columns and labels:
[1] = system: Balanus improvisus cyprid larvae; conditions: cited from earlier work
Halomonas aquamarina = experiment: Bacterial growth assay (OD 630 nm); type: cell-based; conditions: Vreelandella aquamarina, 48 h incubation, 10–0.01 μg/mL tested, read-out: MIC against the growth of marine bacteria, H.a.
Text: (§1) Cyprid larvae of B. improvisus were reared in a laboratory cultivating system at Tjärnö Marine Biological Laboratory, University of Gothenburg, Sweden, as previously described by Berntsson et al. ([2000]). Four pure, but non-axenic, marine microalgae (obtained from Algobank, Caen, France) and 10 marine bacterial strains were used (Table 1) as representative microfoulers. These strains represent fouling species encountered in both estuarine and marine environments (Moodie et al. [2017b]). The bacteria were grown at 26 °C in a marine medium, composed of 0.5% peptone (neutralized bacteriological peptone, Oxoid Ltd.) in filtered (Whatman 1001–270, pore size 11 μm) natural seawater. Microalgae were grown and maintained at 22 °C in F/2 medium.
(§2) Bacterial strain adhesion and growth were determined according to the methods of Thabard et al. ([2011]). Bacterial suspensions (100-μL aliquots, 2 × 10^8 colony forming units/mL) were aseptically added to the compound containing microplate wells (10–0.01 μg/mL), and the plates were incubated for 48 h at 26 °C. Media only was used as a blank. Bacterial growth was monitored spectroscopically at 630 nm. The minimal inhibitory concentration (MIC) for bacterial growth was defined as the lowest concentration which results in a decrease in OD. After 48-h incubation time, the bacterial adhesion assay was conducted by emptying the wells and rinsing with sterile seawater (100 μL) to remove non-attached cells, and air-drying at room temperature. The residual bacterial biofilm was stained with aqueous crystal violet (100 μL, 0.3% v/v) and the OD measured at 595 nm (Sonak and Bhosle [1995]). […] If inhibition was observed, toxicity tests were conducted. The well contents were transferred into a flask of fresh media, and growth was measured after 5 days of additional incubation. The mode of action was deemed biostatic if an increase in OD was measured at 595 nm (Moodie et al. [2017a]).

[2] = system: Pseudoalteromonas elyakovii; experiment: Bacterial growth assay (OD 630 nm); type: cell-based; conditions: 48 h incubation, 10–0.01 μg/mL tested, read-out: MIC against the growth of marine bacteria, P.e.
Text: as §1, §2

Roseobacter litoralis = experiment: Bacterial growth assay (OD 630 nm); type: cell-based; conditions: 48 h incubation, 10–0.01 μg/mL tested, read-out: MIC against the growth of marine bacteria, R.l.
Text: as §1, §2

Shewanella putrefaciens = experiment: Bacterial growth assay (OD 630 nm); type: cell-based; conditions: 48 h incubation, 10–0.01 μg/mL tested, read-out: MIC against the growth of marine bacteria, S.p.
Text: as §1, §2

Vibrio aestuarianus = experiment: Bacterial growth assay (OD 630 nm); type: cell-based; conditions: 48 h incubation, 10–0.01 μg/mL tested, read-out: MIC against the growth of marine bacteria, V.a.
Text: as §1, §2

Vibrio carchariae = experiment: Bacterial growth assay (OD 630 nm); type: cell-based; conditions: Vibrio harveyi, 48 h incubation, 10–0.01 μg/mL tested, read-out: MIC against the growth of marine bacteria, V.c.
Text: as §1, §2

Vibrio harveyi = experiment: Bacterial growth assay (OD 630 nm); type: cell-based; conditions: 48 h incubation, 10–0.01 μg/mL tested, read-out: MIC against the growth of marine bacteria, V.h.
Text: as §1, §2

Vibrio natriegens = experiment: Bacterial growth assay (OD 630 nm); type: cell-based; conditions: 48 h incubation, 10–0.01 μg/mL tested, read-out: MIC against the growth of marine bacteria, V.n.
Text: as §1, §2

Vibrio proteolyticus = experiment: Bacterial growth assay (OD 630 nm); type: cell-based; conditions: 48 h incubation, 10–0.01 μg/mL tested, read-out: MIC against the growth of marine bacteria, V.p.
Text: as §1, §2

marine bacteria [3] = experiment: Bacterial growth assay, whole panel of ten strains; type: cell-based, 10 marine bacterial strains; conditions: tested up to 10 μg/mL
Text: as §1, §2

Halamphora coffeaeformis [4] = experiment: Microalgal adhesion assay (chlorophyll a); type: cell-based; conditions: Halamphora coffeiformis, 120 h, 5 days incubation, 10–0.01 μg/mL tested, read-out: MIC against the adhesion (A) of microalgae, H. coffeaformis
Text: as §1
(§3) Microplates containing the compounds in ranging concentrations (10–0.01 μg/mL) were prepared from MeOH stock solutions as previously described (Trepos et al. [2014]; Moodie et al. [2017a]). Microalgal stock solutions were prepared using the chlorophyll analysis methodology of Chambers et al. ([2011]). The pretreated microplate wells were treated with 100 μL of the algal stock solutions (0.1 mg chlorophyll a/mL). The plates were then incubated for 5 days at 20 °C under constant light exposure (140 μmol m^−2 s^−1). Both microalgal adhesion and growth inhibition were measured. Growth was determined by analysis of liberated chlorophyll a after centrifugation and methanol addition. Chlorophyll a was quantified fluorometrically. MIC value for algal growth was defined as the lowest concentration yielding a decrease in chlorophyll a content. Microalgal adhesion was determined in an analogous manner where the non-attached algal cells were removed prior to methanol addition (100 μL), releasing chlorophyll a from the remaining algal biofilms. The MIC for adhesion was defined as the lowest compound concentration causing a reduction in […]. Toxicity experiments were performed in an analogous manner to those described for the bacterial assays.

Porphyridium purpureum [5] = experiment: Microalgal adhesion assay (chlorophyll a); type: cell-based; conditions: 120 h, 5 days incubation, 10–0.01 μg/mL tested, read-out: MIC against the adhesion (A) of microalgae, P. purpureum
Text: as §1, §3

Cylindrotheca closterium = experiment: Microalgal growth assay (chlorophyll a); type: cell-based; conditions: 120 h, 5 days incubation, 10–0.01 μg/mL tested, read-out: MIC against the growth (G) of microalgae, C. closterium
Text: as §1, §3

Halamphora coffeaeformis [6] = experiment: Microalgal growth assay (chlorophyll a); type: cell-based; conditions: Halamphora coffeiformis, 120 h, 5 days incubation, 10–0.01 μg/mL tested, read-out: MIC against the growth (G) of microalgae, H. coffeaformis
Text: as §1, §3

[7] = system: Pleurochrysis roscoffensis; experiment: Microalgal growth assay (chlorophyll a); type: cell-based; conditions: Chrysotila roscoffensis, 120 h, 5 days incubation, 10–0.01 μg/mL tested, read-out: MIC against the growth (G) of microalgae, P. roscoffensis
Text: as §1, §3

Porphyridium purpureum [8] = experiment: Microalgal growth assay (chlorophyll a); type: cell-based; conditions: 120 h, 5 days incubation, 10–0.01 μg/mL tested, read-out: MIC against the growth (G) of microalgae, P. purpureum
Text: as §1, §3

[9] = system: Balanus improvisus cyprid larvae; experiment: whole plant or invertebrate; type: in vivo; conditions: for IC50: Amphibalanus improvisus, 120 h, read-out: IC50 (cyprid settlement inhibition); for Toxicity (%) (dead cyprids): Balanus improvisus, in vivo, 5 days, 5 μg/mL
Text: as §1
Stock solutions of compounds in DMSO were serially diluted in untreated polystyrene Petri dishes containing 10 mL of filtered (0.2 μm) seawater, affording final concentrations ranging from 0.1 to 10 μg/mL. Freshly molted balanide cyprids (18–22) were added to each Petri dish and incubated at ambient temperature (20–25 °C) for 5 days. Cyprid metamorphosis was assessed using a dissecting microscope where the numbers of juvenile settled, free-swimming, and dead cyprids were noted. Initial compound screening was conducted at 5 μg/mL, and full IC50 determination was performed only on compounds displaying > 50% inhibition at that concentration. The IC50 was defined as the concentration preventing 50% of the cyprid settlement on the Petri dish surface. Each concentration was replicated four times (n = 4), and dishes containing 0.1% of DMSO were used as negative controls. The commercial AF agent Sea-nine™ was employed as a positive control.

microalgae = experiment: Microalgal adhesion and growth, whole panel of four species; type: cell-based, four marine microalgae; conditions: 10–0.01 μg/mL tested
Text: as §1, §3

marine bacteria [10] = experiment: Bacterial adhesion assay, whole panel of ten strains; type: cell-based, 10 marine bacterial strains; conditions: tested up to 10 μg/mL, active = MIC of 10 μg/mL or below
Text: as §1, §2

[11] = system: Pleurochrysis roscoffensis; experiment: Microalgal adhesion assay (chlorophyll a); type: cell-based; conditions: Chrysotila roscoffensis, 120 h, 5 days incubation, 10–0.01 μg/mL tested, read-out: MIC against the adhesion (A) of microalgae, P. roscoffensis
Text: as §1, §3

## COc1cc(O)cc(CCc2cccc(O)c2)c1 [Compound 1, batatasin-III]
[1]; B. improvisus, ref Moodie et al. ([2017b])
  IC50 (cyprid settlement inhibition): 1.0 µg/mL (≈ 4.09 µM)

## N[C@@H](Cc1ccc(O)cc1)C(=O)NCCc1ccc(O)cc1 [Compound 5, L-Tyrosinyltyramine]
[1]; B. improvisus larvae settlement, ref Ortlepp et al. [2007]
  activity against larvae settlement: inactive

## COc1ccc(C(Cc2ccccc2)=NO)cc1OC [Compound 7, 1-(3,4-dimethoxyphenyl)-1-hydroxyimino-2-phenylethane]
Halomonas aquamarina
  MIC: > 10 µg/mL
[2]
  MIC: > 10 µg/mL
Roseobacter litoralis
  MIC: > 10 µg/mL
Shewanella putrefaciens
  MIC: > 10 µg/mL
Vibrio aestuarianus
  MIC: 10 µg/mL (≈ 36.9 µM)
Vibrio carchariae
  MIC: 10 µg/mL (≈ 36.9 µM)
Vibrio harveyi
  MIC: 1 µg/mL (≈ 3.69 µM)
Vibrio natriegens
  MIC: > 10 µg/mL
Vibrio proteolyticus
  MIC: > 10 µg/mL
Marine bacteria [3]
  MIC / activity against the growth of all bacteria tested: modest activity
Halamphora coffeaeformis [4]
  MIC: 0.01 µg/mL (≈ 0.0369 µM)
Porphyridium purpureum [5]
  MIC: 1 µg/mL (≈ 3.69 µM)
Cylindrotheca closterium
  MIC: 1 µg/mL (≈ 3.69 µM)
Halamphora coffeaeformis [6]
  MIC: 0.1 µg/mL (≈ 0.369 µM)
[7]
  MIC: 0.01 µg/mL (≈ 0.0369 µM)
Porphyridium purpureum [8]
  MIC: 10 µg/mL (≈ 36.9 µM)
[9]
  IC50: 2.5 µg/mL (≈ 9.21 µM)
  Toxicity (%) (dead cyprids): 5.8%
microalgae
  MIC / activity against the attachment and growth of microalgae: inhibited both the settlement and growth of all of the tested species

## COc1ccc(C(Cc2ccc(O)cc2)=NO)cc1OC [Compound 8, 1-(3,4-dimethoxyphenyl)-1-hydroxyimino-2-(4’-hydroxyphenyl)-ethane]
Marine bacteria [10]
  MIC / activity against the adhesion of all bacteria tested: ^aCompounds 7, 8, 10, 11, and 12 were inactive against the adhesion of all bacteria tested up to 10 μg/mL
Halomonas aquamarina
  MIC: 10 µg/mL (≈ 34.8 µM)
[2]
  MIC: > 10 µg/mL
Roseobacter litoralis
  MIC: > 10 µg/mL
Shewanella putrefaciens
  MIC: 1 µg/mL (≈ 3.48 µM)
Vibrio aestuarianus
  MIC: > 10 µg/mL
Vibrio carchariae
  MIC: > 10 µg/mL
Vibrio harveyi
  MIC: > 10 µg/mL
Vibrio natriegens
  MIC: > 10 µg/mL
Vibrio proteolyticus
  MIC: > 10 µg/mL
Cylindrotheca closterium
  MIC: 10 µg/mL (≈ 34.8 µM)
Halamphora coffeaeformis [6]
  MIC: 10 µg/mL (≈ 34.8 µM)
[7]
  MIC: 10 µg/mL (≈ 34.8 µM)
Porphyridium purpureum [8]
  MIC: > 10 µg/mL
[9]
  IC50: 5 µg/mL (≈ 17.4 µM)
  Toxicity (%) (dead cyprids): 0.0%

## COc1ccc(CC(=NO)c2ccc(OC)c(OC)c2)cc1 [Compound 9, 1-(3,4-dimethoxyphenyl)-1-hydroxyimino-2-(4’-methoxyphenyl)-ethane]
Marine bacteria [10]
  MIC / activity against the adhesion of all bacteria tested: displayed inhibitory activities
Halomonas aquamarina
  MIC: 10 µg/mL (≈ 33.2 µM)
[2]
  MIC: > 10 µg/mL
Roseobacter litoralis
  MIC: > 10 µg/mL
Shewanella putrefaciens
  MIC: 0.1 µg/mL (≈ 0.332 µM)
Vibrio aestuarianus
  MIC: > 10 µg/mL
Vibrio carchariae
  MIC: > 10 µg/mL
Vibrio harveyi
  MIC: > 10 µg/mL
Vibrio natriegens
  MIC: > 10 µg/mL
Vibrio proteolyticus
  MIC: > 10 µg/mL
[11]
  MIC: 10 µg/mL (≈ 33.2 µM)
Cylindrotheca closterium
  MIC: 10 µg/mL (≈ 33.2 µM)
Halamphora coffeaeformis [6]
  MIC: 10 µg/mL (≈ 33.2 µM)
[7]
  MIC: > 10 µg/mL
Porphyridium purpureum [8]
  MIC: > 10 µg/mL
[9]
  IC50: 1.5 µg/mL (≈ 4.98 µM)
  Toxicity (%) (dead cyprids): 0.0%

## COc1ccc(CC(=NO)c2ccc(O)c(O)c2)cc1 [Compound 10, 1-(3,4-Dihydroxyphenyl)-1-Hydroxyimino-2-(4′-Methoxyphenyl)-Ethane]
Marine bacteria [10]
  MIC / activity against the adhesion of all bacteria tested: ^aCompounds 7, 8, 10, 11, and 12 were inactive against the adhesion of all bacteria tested up to 10 μg/mL
Halomonas aquamarina
  MIC: > 10 µg/mL
[2]
  MIC: 1 µg/mL (≈ 3.66 µM)
Roseobacter litoralis
  MIC: > 10 µg/mL
Shewanella putrefaciens
  MIC: > 10 µg/mL
Vibrio aestuarianus
  MIC: > 10 µg/mL
Vibrio carchariae
  MIC: > 10 µg/mL
Vibrio harveyi
  MIC: > 10 µg/mL
Vibrio natriegens
  MIC: 10 µg/mL (≈ 36.6 µM)
Vibrio proteolyticus
  MIC: > 10 µg/mL
[11]
  MIC: 0.1 µg/mL (≈ 0.366 µM)
Cylindrotheca closterium
  MIC: 10 µg/mL (≈ 36.6 µM)
Halamphora coffeaeformis [6]
  MIC: 1 µg/mL (≈ 3.66 µM)
[7]
  MIC: 1 µg/mL (≈ 3.66 µM)
Porphyridium purpureum [8]
  MIC: > 10 µg/mL
[9]
  IC50: 5 µg/mL (≈ 18.3 µM)
  Toxicity (%) (dead cyprids): 2.6%

## COc1cc(C(Cc2ccc(O)cc2)=NO)ccc1O [Compound 12, 1-(3-methoxy-4-hydroxyphenyl)-1-hydroxyimino-2-(4’-hydroxyphenyl)-ethane]
Halomonas aquamarina
  MIC: 0.1 µg/mL (≈ 0.366 µM)
[2]
  MIC: 10 µg/mL (≈ 36.6 µM)
Roseobacter litoralis
  MIC: 1 µg/mL (≈ 3.66 µM)
Shewanella putrefaciens
  MIC: 0.1 µg/mL (≈ 0.366 µM)
Vibrio aestuarianus
  MIC: > 10 µg/mL
Vibrio carchariae
  MIC: > 10 µg/mL
Vibrio harveyi
  MIC: > 10 µg/mL
Vibrio natriegens
  MIC: > 10 µg/mL
Vibrio proteolyticus
  MIC: > 10 µg/mL
Marine bacteria [3]
  MIC / activity against the growth of all bacteria tested: active against four strains
Cylindrotheca closterium
  MIC: > 10 µg/mL
Halamphora coffeaeformis [6]
  MIC: 10 µg/mL (≈ 36.6 µM)
[7]
  MIC: 10 µg/mL (≈ 36.6 µM)
Porphyridium purpureum [8]
  MIC: > 10 µg/mL
[9]
  IC50: 2.5 µg/mL (≈ 9.15 µM)
  Toxicity (%) (dead cyprids): 3.5%
